Reference: ChEMBL document CHEMBL4359850, “Synthesis, in vivo and in silico anticonvulsant activity studies of new derivatives of 2-(2,4-dioxo-1,4-dihydroquinazolin-3(2H)-yl)acetamide” (Eur J Med Chem, 2019)

Assays:
[1] = Toxicity in albino mouse assessed as motor coordination impairment by measuring animal fall-off from rod before 3 mins at 100 mg/kg, ig administered 30 mins prior to test by rotarod test (reference value: 33%); type: organism-based; conditions: in vivo, po, 0.05 h
Mus musculus [2] = assay: Anticonvulsive activity in albino mouse assessed as protection against pentylenetetrazole-induced seizure by measuring severity of convulsion at 100 mg/kg, ig administered 30 mins prior to pentylenetetrazole challenge and mesured for 60 mins (reference value: 5.83 +/- 0.17); type: functional
Mus musculus [3] = assay: Anticonvulsive activity in pentylenetetrazole-induced seizure albino mouse model assessed as duration time of convulsion period at 100 mg/kg, ig administered 30 mins prior to pentylenetetrazole challenge and mesured for 60 mins (reference value: 12 +/- 1.34 min); type: functional
Mus musculus [4] = assay: Anticonvulsive activity in pentylenetetrazole-induced seizure albino mouse model assessed as lifetime of animal to death at 100 mg/kg, ig administered 30 mins prior to pentylenetetrazole challenge and mesured for 60 mins (reference value: 17.45 +/- 1.85 min); type: functional
[5] = Toxicity in albino mouse assessed as motor coordination impairment by measuring animal fall-off from rod before 2 mins at 100 mg/kg, ig administered 30 mins prior to test by rotarod test (reference value: 33%); type: organism-based; conditions: in vivo, po
[6] = Toxicity in albino mouse assessed as motor coordination impairment by measuring animal fall-off from rod before 5 mins at 100 mg/kg, ig administered 30 mins prior to test by rotarod test (reference value: 50%); type: organism-based; conditions: in vivo, po
Mus musculus [7] = assay: Anticonvulsive activity in pentylenetetrazole-induced seizure albino mouse model assessed as number of clonic and tonic convulsion at 100 mg/kg, ig administered 30 mins prior to pentylenetetrazole challenge and mesured per animal for 60 mins (reference value: 3.58 +/- 0.42); type: functional
Mus musculus [8] = assay: Anticonvulsive activity in pentylenetetrazole-induced seizure albino mouse model assessed as decrease in time of death at 100 mg/kg, ig administered 30 mins prior to pentylenetetrazole challenge and mesured for 60 mins relative to control; type: functional
Mus musculus [9] = assay: Anticonvulsive activity in pentylenetetrazole-induced seizure albino mouse model assessed as proportion of animals with clonic convulsion at 100 mg/kg, ig administered 30 mins prior to pentylenetetrazole challenge and mesured for 60 mins (reference value: 100 %); type: functional
[10] = Toxicity in albino mouse assessed as motor coordination impairment by measuring animal fall-off from rod before 1 min at 100 mg/kg, ig administered 30 mins prior to test by rotarod test (reference value: 17%); type: organism-based; conditions: in vivo, po
Mus musculus [11] = assay: Anticonvulsive activity in pentylenetetrazole-induced seizure albino mouse model assessed as proportion of animals with tonic convulsion at 100 mg/kg, ig administered 30 mins prior to pentylenetetrazole challenge and mesured for 60 mins (reference value: 100%); type: functional
Mus musculus [12] = assay: Anticonvulsive activity in pentylenetetrazole-induced seizure albino mouse model assessed as latecy time at 100 mg/kg, ig administered 30 mins prior to pentylenetetrazole challenge and mesured for 60 mins (reference value: 5.79 +/- 0.58 min); type: functional
[13] = Acute toxicity in albino mouse assessed as diarrhoea at 1000 to 5000 mg/kg, ig measured for 14 days; type: organism-based; conditions: in vivo, po, 336 h
Mus musculus [14] = assay: Anticonvulsive activity in pentylenetetrazole-induced seizure albino mouse model assessed as decrease in duration of convulsive period at 100 mg/kg, ig administered 30 mins prior to pentylenetetrazole challenge and mesured for 60 mins relative to control; type: functional
[15] = Acute toxicity in albino mouse assessed as effect on muscle movement at 1000 to 5000 mg/kg, ig measured for 14 days; type: organism-based; conditions: in vivo, po, 336 h
[16] = Acute toxicity in albino mouse assessed as effect on skeletal muscle tone at 1000 to 5000 mg/kg, ig measured for 14 days; type: organism-based; conditions: in vivo, po, 336 h
[17] = Acute toxicity in albino mouse assessed as death at 1000 to 5000 mg/kg, ig measured for 14 days; type: organism-based; conditions: in vivo, po, 336 h
[18] = Acute toxicity in albino mouse assessed as lateral position at 1000 to 5000 mg/kg, ig measured for 14 days; type: organism-based; conditions: in vivo, po, 336 h
Mus musculus [19] = assay: Anticonvulsive activity in pentylenetetrazole-induced seizure albino mouse model assessed as lengthened latecy of convulsion at 100 mg/kg, ig administered 30 mins prior to pentylenetetrazole challenge and mesured for 60 mins relative to control; type: functional
[20] = Acute toxicity in albino mouse assessed as hypersalivation at 1000 to 5000 mg/kg, ig measured for 14 days; type: organism-based; conditions: in vivo, po, 336 h
[21] = Acute toxicity in albino mouse assessed as blepharoptosis at 1000 to 5000 mg/kg, ig measured for 14 days; type: organism-based; conditions: in vivo, po, 336 h
Mus musculus [22] = assay: Anticonvulsive activity in pentylenetetrazole-induced seizure albino mouse model assessed as lethality at 100 mg/kg, ig administered 30 mins prior to pentylenetetrazole challenge and mesured for 60 mins (reference value: 91.7%); type: functional
Mus musculus [23] = assay: Anticonvulsive activity in pentylenetetrazole-induced seizure albino mouse model assessed as decrease in severity of convulsion at 100 mg/kg, ig administered 30 mins prior to pentylenetetrazole challenge and mesured for 60 mins relative to control; type: functional
[24] = Acute toxicity in albino mouse assessed as decrease in motor activity at 3000 to 5000 mg/kg, ig measured after 30 mins to 1 hr; type: organism-based; conditions: in vivo, po
[25] = Acute toxicity in ig dosed albino mouse measured for 14 days; type: organism-based; conditions: in vivo, po
Mus musculus [26] = assay: Anticonvulsive activity in pentylenetetrazole-induced seizure albino mouse model assessed as lifetime of animal to death at 300 mg/kg, ig administered 30 mins prior to pentylenetetrazole challenge and mesured for 60 mins (reference value: 17.45 +/- 1.85 min); type: functional
Mus musculus [27] = assay: Anticonvulsive activity in pentylenetetrazole-induced seizure albino mouse model assessed as proportion of animals with clonic convulsion at 300 mg/kg, ig administered 30 mins prior to pentylenetetrazole challenge and mesured for 60 mins (reference value: 100 %); type: functional
[28] = Toxicity in albino mouse assessed as motor coordination impairment by measuring animal fall-off from rod before 5 mins at 300 mg/kg, ig administered 30 mins prior to test by rotarod test (reference value: 50%); type: organism-based; conditions: in vivo, po
Mus musculus [29] = assay: Anticonvulsive activity in pentylenetetrazole-induced seizure albino mouse model assessed as latency time at 300 mg/kg, ig administered 30 mins prior to pentylenetetrazole challenge and mesured for 60 mins (reference value: 5.79 +/- 0.58 min); type: functional
Mus musculus [30] = assay: Anticonvulsive activity in pentylenetetrazole-induced seizure albino mouse model assessed as proportion of animals with tonic convulsion at 300 mg/kg, ig administered 30 mins prior to pentylenetetrazole challenge and mesured for 60 mins (reference value: 100%); type: functional
Mus musculus [31] = assay: Anticonvulsive activity in pentylenetetrazole-induced seizure albino mouse model assessed as duration time of convulsion period at 300 mg/kg, ig administered 30 mins prior to pentylenetetrazole challenge and mesured for 60 mins (reference value: 12 +/- 1.34 min); type: functional
[32] = Toxicity in albino mouse assessed as motor coordination impairment by measuring animal fall-off from rod before 1 min at 300 mg/kg, ig administered 30 mins prior to test by rotarod test (reference value: 17%); type: organism-based; conditions: in vivo, po
Mus musculus [33] = assay: Anticonvulsive activity in pentylenetetrazole-induced seizure albino mouse model assessed as lethality at 300 mg/kg, ig administered 30 mins prior to pentylenetetrazole challenge and mesured for 60 mins (reference value: 91.7%); type: functional
Mus musculus [34] = assay: Anticonvulsive activity in pentylenetetrazole-induced seizure albino mouse model assessed as number of clonic and tonic convulsion at 300 mg/kg, ig administered 30 mins prior to pentylenetetrazole challenge and mesured per animal for 60 mins (reference value: 3.58 +/- 0.42); type: functional
[35] = Toxicity in albino mouse assessed as motor coordination impairment by measuring animal fall-off from rod before 3 mins at 300 mg/kg, ig administered 30 mins prior to test by rotarod test (reference value: 33%); type: organism-based; conditions: in vivo, po, 0.05 h
Mus musculus [36] = assay: Anticonvulsive activity in albino mouse assessed as protection against pentylenetetrazole-induced seizure by measuring severity of convulsion at 300 mg/kg, ig administered 30 mins prior to pentylenetetrazole challenge and mesured for 60 mins (reference value: 5.83 +/- 0.17); type: functional
[37] = Toxicity in albino mouse assessed as motor coordination impairment by measuring animal fall-off from rod before 2 mins at 300 mg/kg, ig administered 30 mins prior to test by rotarod test (reference value: 33%); type: organism-based; conditions: in vivo, po

| Structure (SMILES) | Activity [1] | Activity (Mus musculus [2]) | Time (Mus musculus [3]) | Time (Mus musculus [4]) | Activity [5] | Activity [6] | Activity (Mus musculus [7]) | Activity (Mus musculus [9]) | Activity [10] | Activity (Mus musculus [11]) | Time (Mus musculus [12]) | Activity (Mus musculus [22]) | further results |
| --- | --- | --- | --- | --- | --- | --- | --- | --- | --- | --- | --- | --- | --- |
| O=C(Cn1c(=O)[nH]c2ccccc2c1=O)NCc1ccc(Cl)cc1 | 67% | 6 | 4.54 min | 9.36 min | 67% | 83% | 2 | 100% | 50% | 100% | 4.82 min | – | fold change (FC) (Mus musculus [8]): 1.9 |
| O=C(Cn1c(=O)[nH]c2ccccc2c1=O)NCc1ccc(Cl)cc1Cl | 50% | 2.8 | 0.45 min | – | 50% | 67% | 1 | 80% | 17% | 40% | 20.38 min | 0% | Activity [13]: Non-Toxic; fold change (FC) (Mus musculus [14]): 26.7; Activity [15]: Non-Toxic; Activity [16]: Non-Toxic; Activity [17]: Non-Toxic; Activity [18]: Non-Toxic; fold change (FC) (Mus musculus [19]): 3.5; Activity [20]: Non-Toxic; Activity [21]: Non-Toxic; fold change (FC) (Mus musculus [23]): 2.1; Activity [24]: Toxic; LD50 at 336 h [25]: > 5000 mg/kg |
| O=C(Cn1c(=O)[nH]c2ccccc2c1=O)NCc1ccccc1 | 50% | 5.6 | 14.05 min | 17.5 min | 33% | 50% | 3 | 100% | 17% | 100% | 4.96 min | 80% | – |
| C=CCNC(=O)Cn1c(=O)[nH]c2ccccc2c1=O | 50% | 5 | 9.8 min | 16.95 min | 50% | 67% | 2.2 | 100% | 33% | 80% | 6.6 min | 60% | – |
| O=C(Cn1c(=O)[nH]c2ccccc2c1=O)NCCc1ccccc1 | 50% | 5.6 | 9.98 min | 17.79 min | 50% | 67% | 1.8 | 100% | 33% | 100% | 11.43 min | 80% | – |
| COc1ccccc1CNC(=O)Cn1c(=O)[nH]c2ccccc2c1=O | 67% | 4.4 | 7.25 min | 12.45 min | 67% | 83% | 2.4 | 80% | 50% | 80% | 15.14 min | 60% | – |
| CCCC(CCC)C(=O)[O-].[Na+] [VALPROATE SODIUM] | – | – | – | – | – | – | – | – | – | – | – | – | Time (Mus musculus [26]): 20.9 min; Activity (Mus musculus [27]): 66.7%; Activity [28]: 100%; Time (Mus musculus [29]): 26.65 min; Activity (Mus musculus [30]): 50%; Time (Mus musculus [31]): 7.64 min; Activity [32]: 50%; Activity (Mus musculus [33]): 16.7%; Activity (Mus musculus [34]): 2; Activity [35]: 83%; Activity (Mus musculus [36]): 2.83; Activity [37]: 67% |
| O=C(Cn1c(=O)[nH]c2ccccc2c1=O)NCCCc1ccccc1 | 50% | 4 | 3.05 min | 12.16 min | 33% | 50% | 1.2 | 80% | 17% | 80% | 15.51 min | 40% | – |
| O=C(Cn1c(=O)[nH]c2ccccc2c1=O)Nc1ccccc1 | 50% | 4.22 | 1.24 min | 7.14 min | 33% | 67% | 1.22 | 100% | 17% | 55.5% | 10.57 min | 33.3% | – |
| CCCNC(=O)Cn1c(=O)[nH]c2ccccc2c1=O | 50% | 5 | 2.2 min | 6.89 min | 50% | 50% | 1.4 | 100% | 33% | 100% | 7.5 min | 40% | – |
| O=C(Cn1c(=O)[nH]c2ccccc2c1=O)NC1CCCCC1 | 50% | 5.6 | 13.11 min | 11.53 min | 33% | 50% | 3.2 | 100% | 17% | 100% | 3.8 min | 80% | – |
